Measurements: PubChem BioAssay (NCI)
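Results reflect a 48-hour exposure of cells in 96-well plates to compound at five concentrations. Abbreviation: GI50, concentration required for 50% inhibition of growth. At the TGI there is no net growth.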

How the values were obtained:
Test in all cases: growth of human tumour cells (NCI), 48 h
[1] = system: RPMI-8226 leukemia
[2] = system: U251 CNS
[3] = system: MOLT-4 leukemia
[4] = system: UACC-257 melanoma
[5] = system: OVCAR-3 ovarian
[6] = system: MALME-3M melanoma
[7] = system: SR leukemia
[8] = system: SK-MEL-5 melanoma
[9] = system: SK-MEL-2 melanoma
[10] = system: MCF7 breast
[11] = system: MDA-MB-231 breast
[12] = system: NCI-H460 lung
[13] = system: MDA-MB-435
[14] = system: SN12C renal
[15] = system: T-47D breast
[16] = system: CAKI-1 renal
[17] = system: PC-3 prostate
[18] = system: A549 NSCLC
[19] = system: HT29 colon
[20] = system: HOP-62 NSCLC
[21] = system: SF-295 CNS
[22] = system: COLO 205 colon
[23] = system: SK-OV-3 ovarian
[24] = system: DU-145 prostate
[25] = system: HL-60(TB) leukemia
[26] = system: BT-549 breast
[27] = system: NCI-H226 lung
[28] = system: 786-0 renal
[29] = system: SK-MEL-28 melanoma
[30] = system: A498 renal
[31] = system: HCC-2998 colon
[32] = system: UO-31 renal
[33] = system: HCT-116 colon
[34] = system: TK-10 renal
[35] = system: M14 melanoma
[36] = system: HS 578T breast
[37] = system: ACHN renal
[38] = system: LOX IMVI melanoma
[39] = system: OVCAR-4 ovarian
[40] = system: IGROV1 ovarian
[41] = system: HCT-15 colon
[42] = system: SNB-75 CNS
[43] = system: NCI-H522 lung
[44] = system: K-562 leukemia
[45] = system: CCRF-CEM leukemia
[46] = system: SF-268 CNS
[47] = system: NCI/ADR-RES ovarian
[48] = system: SF-539 CNS
[49] = system: SNB-19 CNS
[50] = system: KM12 colon
[51] = system: RXF 393 renal
[52] = system: SW-620 colon
[53] = system: OVCAR-8 ovarian
[54] = system: UACC-62 melanoma
[55] = system: NCI-H23 lung
[56] = system: OVCAR-5 ovarian
[57] = system: HOP-92 NSCLC

SMILES: COc1ccc(-c2nc3sc(-c4cc(OC)c(OC)c(OC)c4)nn3c2/C=C2/C(=O)Nc3ccc(F)cc32)cc1
- GI50 [1]: 11.3 µM
- TGI [1]: 64.6 µM
- GI50 [2]: 1.77 µM
- TGI [2]: 3.39 µM
- GI50 [3]: 4.54 µM
- TGI [3]: > 100 µM
- GI50 [4]: 3.35 µM
- TGI [4]: 11.3 µM
- GI50 [5]: 2.32 µM
- TGI [5]: 5.27 µM
- GI50 [6]: 9.15 µM
- TGI [6]: 29.9 µM
- GI50 [7]: 23.5 µM
- TGI [7]: > 100 µM
- GI50 [8]: 1.64 µM
- TGI [8]: 3.65 µM
- GI50 [9]: 5.58 µM
- TGI [9]: 17.6 µM
- GI50 [10]: 1.66 µM
- TGI [10]: 6.32 µM
- GI50 [11]: 5.25 µM
- TGI [11]: 20.7 µM
- GI50 [12]: 3.42 µM
- TGI [12]: 15.3 µM
- GI50 [13]: 3.39 µM
- TGI [13]: 14 µM
- GI50 [14]: 14.2 µM
- TGI [14]: 40.1 µM
- GI50 [15]: 2.01 µM
- TGI [15]: 5.16 µM
- GI50 [16]: 4.48 µM
- TGI [16]: 20 µM
- GI50 [17]: 24.7 µM
- TGI [17]: 65.3 µM
- GI50 [18]: 2.13 µM
- TGI [18]: 5.26 µM
- GI50 [19]: 2.18 µM
- TGI [19]: 4.68 µM
- GI50 [20]: 1.94 µM
- TGI [20]: 4.74 µM
- GI50 [21]: 3 µM
- TGI [21]: 10.8 µM
- GI50 [22]: 1.61 µM
- TGI [22]: 4.13 µM
- GI50 [23]: 2.84 µM
- TGI [23]: 7.34 µM
- GI50 [24]: 1.87 µM
- TGI [24]: 4.53 µM
- GI50 [25]: 2.17 µM
- TGI [25]: 70.3 µM
- GI50 [26]: 14.9 µM
- TGI [26]: 74.6 µM
- GI50 [27]: 16.8 µM
- TGI [27]: 36.7 µM
- GI50 [28]: 16 µM
- TGI [28]: 32.7 µM
- GI50 [29]: 9.58 µM
- TGI [29]: 27.8 µM
- GI50 [30]: 12.2 µM
- TGI [30]: 30.6 µM
- GI50 [31]: 5.25 µM
- TGI [31]: 22 µM
- GI50 [32]: 15 µM
- TGI [32]: 29.7 µM
- GI50 [33]: 14.2 µM
- TGI [33]: 40.5 µM
- GI50 [34]: 2.26 µM
- TGI [34]: 4.23 µM
- GI50 [35]: 5.51 µM
- TGI [35]: 28.1 µM
- GI50 [36]: 16.2 µM
- TGI [36]: > 100 µM
- GI50 [37]: 3.29 µM
- TGI [37]: 15.3 µM
- GI50 [38]: 6.88 µM
- TGI [38]: 37.6 µM
- GI50 [39]: 1.77 µM
- TGI [39]: 4.51 µM
- GI50 [40]: 3.39 µM
- TGI [40]: 12.7 µM
- GI50 [41]: 2.5 µM
- TGI [41]: > 100 µM
- GI50 [42]: 10.3 µM
- TGI [42]: 22.6 µM
- GI50 [43]: 5.44 µM
- TGI [43]: 18 µM
- GI50 [44]: 13.1 µM
- TGI [44]: > 100 µM
- GI50 [45]: 5.49 µM
- TGI [45]: > 100 µM
- GI50 [46]: 4.4 µM
- TGI [46]: 33.1 µM
- GI50 [47]: 21.9 µM
- TGI [47]: > 100 µM
- GI50 [48]: 56 µM
- TGI [48]: > 100 µM
- GI50 [49]: 15.1 µM
- TGI [49]: 44 µM
- GI50 [50]: 4.04 µM
- TGI [50]: 15.7 µM
- GI50 [51]: 3.96 µM
- TGI [51]: 18.7 µM
- GI50 [52]: 3.22 µM
- TGI [52]: 14.8 µM
- GI50 [53]: 5.34 µM
- TGI [53]: > 100 µM
- GI50 [54]: 13.3 µM
- TGI [54]: 33.4 µM
- GI50 [55]: 4.25 µM
- TGI [55]: 21.5 µM
- GI50 [56]: 6.14 µM
- TGI [56]: 21.7 µM
- GI50 [57]: 2.02 µM
- TGI [57]: 9.48 µM
